Literature values as cited in patent publication US6072029A, “Derivatives of human α1 -antitrypsin and process for their preparation” (priority 1984, dated 2000).
Where two headings read alike, the source gives them in different places.

Test system: thrombin

Substance: α1 -AT: natural human α1-antitrypsin, serine protease inhibitor
- inactivation of thrombin (increasing molar excess of α1-antitrypsin): completely inhibited
- inactivation of thrombin (molar ratio of 1:1): weak and incomplete
